Assay [1] concerns LNCaP. Nature of the assay: Antiproliferative activity against human LNCaP cells. The class given is functional, cell-based.
The next assay has as its system MR49F. Nature of the assay: Antiproliferative activity against human MR49F cells. The format is functional, cell-based.
Assay [2] addresses T1, Androgen receptor (Homo sapiens, UniProt P10275).
T1 sequence (P10275 whole entry): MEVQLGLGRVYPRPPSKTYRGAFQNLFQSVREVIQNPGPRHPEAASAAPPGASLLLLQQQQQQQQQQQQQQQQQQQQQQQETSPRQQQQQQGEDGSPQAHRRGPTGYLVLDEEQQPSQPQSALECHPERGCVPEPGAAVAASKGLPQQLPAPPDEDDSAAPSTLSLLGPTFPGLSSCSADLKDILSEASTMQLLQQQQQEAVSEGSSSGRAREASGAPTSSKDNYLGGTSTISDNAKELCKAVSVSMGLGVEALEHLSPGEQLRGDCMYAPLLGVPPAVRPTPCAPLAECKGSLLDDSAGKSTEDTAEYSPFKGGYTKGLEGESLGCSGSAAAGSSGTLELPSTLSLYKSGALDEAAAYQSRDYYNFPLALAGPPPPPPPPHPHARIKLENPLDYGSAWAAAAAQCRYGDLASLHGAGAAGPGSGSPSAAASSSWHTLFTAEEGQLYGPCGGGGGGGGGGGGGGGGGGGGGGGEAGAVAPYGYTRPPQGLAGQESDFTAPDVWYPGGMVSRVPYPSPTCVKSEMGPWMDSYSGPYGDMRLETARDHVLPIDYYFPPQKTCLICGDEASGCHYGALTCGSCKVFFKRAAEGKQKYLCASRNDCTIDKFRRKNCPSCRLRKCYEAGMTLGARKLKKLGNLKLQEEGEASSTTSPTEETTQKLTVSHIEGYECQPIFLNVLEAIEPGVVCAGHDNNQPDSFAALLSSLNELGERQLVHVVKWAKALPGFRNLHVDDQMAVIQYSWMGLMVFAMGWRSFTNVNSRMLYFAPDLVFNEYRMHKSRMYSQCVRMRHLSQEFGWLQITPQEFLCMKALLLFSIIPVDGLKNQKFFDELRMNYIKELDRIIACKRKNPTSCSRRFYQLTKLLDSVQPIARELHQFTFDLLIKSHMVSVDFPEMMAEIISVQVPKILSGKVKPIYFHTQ
Nature of the assay: Antagonist activity at Androgen receptor in human LNCaP cells assessed as inhibition of Binding Function 3 (BF3) of AR measured by enhanced green fluorescent protein transcriptional (eGFPT) assay. The class given is cell-based.

Assay [3] has as its target Androgen receptor (Rattus norvegicus, UniProt P15207).
Description: Binding affinity to rat Androgen receptor ligand binding domain measured by competitive ligand binding assay
In assay [4] the target is Protein cereblon/Androgen receptor (Homo sapiens, UniProt P10275+Q96SW2). Nature of the assay: Protac activity at CRBN/Androgen receptor in human LNCaP cells assessed as Androgen receptor degradation. The class given is cell-based.
In assay [5] the target is T1, Androgen receptor. Nature of the assay: Antagonist activity at Androgen receptor in human LNCaP cells assessed as inhibition of Binding Function 3 (BF3) of AR measured by luciferase assay. The class given is cell-based.
Assay [6] in a line: Inhibition of human LNCaP cell growth at 10 uM measured after 24 hrs by AlamarBlue staining method. The class given is functional. A general note: The colour change of resazurin is a common sign of viable cells or microbes.
For assay [7], the target named is T2, Androgen receptor (Homo sapiens) (UniProt P10275).
T2 sequence (whole entry): T1 sequence (P10275 whole entry)
Nature of the assay: Antagonist activity at Androgen receptor in human LNCaP cells assessed as inhibition of PSA expression at 10 uM measured by ELISA assay. The class given is cell-based. More on the design: scale not given: the % may be the effect or the level left.

For assay [8], the target named is T3, von Hippel-Lindau disease tumor suppressor/Androgen receptor (Homo sapiens, UniProt P10275+P40337). Nature of the assay: Protac activity at VHL/Androgen receptor in human LNCaP cells assessed as Androgen receptor degradation. The format is cell-based.
Target sequence in this assay (P40337 whole entry, one chain of several): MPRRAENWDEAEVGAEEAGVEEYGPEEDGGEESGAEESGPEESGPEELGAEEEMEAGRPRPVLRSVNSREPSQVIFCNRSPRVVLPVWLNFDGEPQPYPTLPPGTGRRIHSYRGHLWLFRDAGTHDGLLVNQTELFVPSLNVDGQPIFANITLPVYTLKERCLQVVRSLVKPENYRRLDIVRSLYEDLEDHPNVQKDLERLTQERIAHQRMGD
Assay [9] has as its target T3, von Hippel-Lindau disease tumor suppressor/Androgen receptor. Nature of the assay: Protac activity at VHL/Androgen receptor in human VCaP cells assessed as Androgen receptor degradation. The class given is cell-based.
Target sequence in this assay (P40337 whole entry, one chain of several): as above
Assay [10] has the same target. Nature of the assay: Protac activity at VHL (unknown origin)/Androgen receptor (unknown origin) assessed as full-length Androgen receptor degradation measured by immunoblotting method. The format is protein assay. For orientation: Immunoblotting shows a protein as a band on a membrane.
Target sequence in this assay (P40337 whole entry, one chain of several): as above
The target is the same in assay [11]. Nature of the assay: Protac activity at VHL (unknown origin)/Androgen receptor splice variant7 (unknown origin) assessed as Androgen receptor degradation measured by immunoblotting method.
Target sequence in this assay (P40337 whole entry, looked up, change not shown, one chain of several): as the sequence (P40337 whole entry, one chain of several) above
Assay [12] concerns the target T2, Androgen receptor (Homo sapiens). Nature of the assay: Antagonist activity at Androgen receptor (unknown origin) at 10 uM relative to control. Also on record: scale not given: the % may be the effect or the level left. As to conditions: filed as antagonist.
The target is the same in assay [13]. Nature of the assay: Agonist activity at Androgen receptor (unknown origin) in presence of DHT.
The subject of assay [14] is LNCaP. Nature of the assay: Antiproliferative activity against human LNCaP cells after 5 days by MTS assay. The class given is functional. To be noted: time 5 day. In general terms: Tetrazolium assays rely on reduction of a dye to a coloured formazan, in cell work by metabolically active cells.
In a further assay the test system is HEK-293T. Nature of the assay: Antiproliferative activity against NTD-over expressed human HEK293T cells after 5 days by MTS assay. The format is functional, cell-based. As to conditions: 120 h.
In another assay the test system is LNCaP C4-2. Nature of the assay: Antiproliferative activity against AR-independent human LNCaP C4-2 cells after 5 days by MTS assay. The format is functional, cell-based. To be noted: LNCaP C4-2, 120 h.
A short description of assay [15]: Antiproliferative activity against AR-independent human CWR22Rv cells after 5 days by MTS assay. As to conditions: 120 h. The format is functional, cell-based.
A short description of assay [16]: Antitumor activity against human CWR22Rv cells xenografted in mouse at 10 mg/kg, ip administered for 21 days. To be noted: time 21 day. The format is functional.

Chain of Androgen receptor (Rattus norvegicus, UniProt P15207) (P15207 whole entry S389L): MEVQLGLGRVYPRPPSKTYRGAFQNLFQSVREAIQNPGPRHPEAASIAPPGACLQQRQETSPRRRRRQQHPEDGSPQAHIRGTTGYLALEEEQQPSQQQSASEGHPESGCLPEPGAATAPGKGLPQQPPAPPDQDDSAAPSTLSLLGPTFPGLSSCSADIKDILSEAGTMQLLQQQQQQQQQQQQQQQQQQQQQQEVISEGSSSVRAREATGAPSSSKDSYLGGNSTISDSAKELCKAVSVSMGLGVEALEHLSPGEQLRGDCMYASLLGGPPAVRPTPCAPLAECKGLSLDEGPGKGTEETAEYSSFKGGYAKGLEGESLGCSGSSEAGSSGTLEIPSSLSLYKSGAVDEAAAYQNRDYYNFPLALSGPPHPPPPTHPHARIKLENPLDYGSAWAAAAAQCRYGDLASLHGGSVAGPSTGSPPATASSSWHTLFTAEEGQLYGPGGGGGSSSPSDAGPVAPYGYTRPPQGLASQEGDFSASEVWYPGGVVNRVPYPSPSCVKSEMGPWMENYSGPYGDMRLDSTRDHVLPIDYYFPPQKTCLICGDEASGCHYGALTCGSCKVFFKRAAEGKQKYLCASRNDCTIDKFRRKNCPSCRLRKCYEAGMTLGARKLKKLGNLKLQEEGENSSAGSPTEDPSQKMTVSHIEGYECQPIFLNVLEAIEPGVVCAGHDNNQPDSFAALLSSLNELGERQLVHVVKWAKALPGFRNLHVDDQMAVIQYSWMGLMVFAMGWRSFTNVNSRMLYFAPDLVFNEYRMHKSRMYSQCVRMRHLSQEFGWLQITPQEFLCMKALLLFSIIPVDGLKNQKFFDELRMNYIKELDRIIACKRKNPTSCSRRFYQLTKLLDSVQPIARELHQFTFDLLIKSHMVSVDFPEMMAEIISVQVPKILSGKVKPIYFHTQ
Chain of Protein cereblon/Androgen receptor (Q96SW2 whole entry, one chain of several): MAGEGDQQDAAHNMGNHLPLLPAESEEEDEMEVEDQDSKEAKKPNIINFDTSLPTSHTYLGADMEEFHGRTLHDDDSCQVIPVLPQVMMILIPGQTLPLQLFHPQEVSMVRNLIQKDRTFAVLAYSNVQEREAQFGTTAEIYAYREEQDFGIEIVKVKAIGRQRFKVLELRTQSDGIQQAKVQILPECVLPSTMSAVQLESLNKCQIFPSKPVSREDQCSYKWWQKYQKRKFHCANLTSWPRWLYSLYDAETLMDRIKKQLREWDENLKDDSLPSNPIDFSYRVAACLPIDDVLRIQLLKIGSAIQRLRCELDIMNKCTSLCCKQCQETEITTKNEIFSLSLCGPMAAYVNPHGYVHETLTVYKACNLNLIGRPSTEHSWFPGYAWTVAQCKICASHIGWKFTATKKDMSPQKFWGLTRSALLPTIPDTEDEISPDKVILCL

As for `Brc1ncn(-c2csc(N3CCOCC3)n2)c1Br`, the concentration for half-maximal inhibition (IC50) in the assay with LNCaP [1] and in the assay on MR49F was < 0.5 µM in each case.

On to `CC(C)C(NC(=O)c1cc2ccc(F)cc2[nH]1)c1ccco1` (centres undefined), for which, at Androgen receptor [2], the IC50 turned out to be 0.43 µM.

`C[C@](O)(Cn1ccc2cc(F)ccc21)C(=O)Nc1ccc(C#N)c(C(F)(F)F)c1`: the Ki at Androgen receptor [3] is > 10 µM.

Turning to `C[C@](O)(COc1ccc(OCCOCCOc2cccc3c2C(=O)N(C2CCC(=O)NC2=O)C3=O)cc1)C(=O)Nc1ccc(I)c(C#N)c1` (some centres undefined), the DC50 in assay [4] is 5.2 µM.

Take `CCS(=O)(=O)Nc1cccc(-c2cc(=O)n(-c3ccc(Cl)c(Cl)c3)nc2C)c1`: the IC50 on Androgen receptor [5] was found to be 6.26 µM.

Regarding `COc1cc(/C=N/NC(=O)c2cc3c(ccc4ccccc43)o2)cc(OC)c1O`, the inhibition at 10 µM in assay [6] is 30%. Also, the Activity in assay [7] was determined as 30%.

Regarding `Cc1ncsc1-c1ccc([C@H](CC(=O)N2CCC(N3CCC(C#Cc4ccc(C(=O)N[C@H]5C(C)(C)[C@H](Oc6ccc(C#N)c(Cl)c6)C5(C)C)cc4)CC3)CC2)NC(=O)[C@@H]2C[C@@H](O)CN2C(=O)[C@@H](NC(=O)C2(F)CC2)C(C)(C)C)cc1`, the half-maximal degradation concentration (DC50) in assay [8] and in [9] was < 0.001 µM in each case.

As for `Cc1ncsc1-c1ccc([C@H](C)NC(=O)[C@@H]2C[C@@H](O)CN2C(=O)[C@@H](NC(=O)CCCCNC(=O)COc2c(-c3csc(N4CCOCC4)n3)ccc(F)c2F)C(C)(C)C)cc1`, the half-maximal degradation concentration (DC50) in [10] came to 2 µM; in assay [11] it was 0.37 µM.

In the case of `CCOc1ccc2c(c1OC(C)C)CCN(c1ccc(C(=O)Nc3cccc(C)n3)cn1)C2`, the Activity was > 95% in assay [12], < 5% in assay [13] and >90% with LNCaP [14]. Besides, the IC50 in the assay on HEK-293T was found to be 0.78 µM; with LNCaP C4-2 it was 1 µM; in assay [15], 1 µM. The T/C in [16] worked out at 65%.

One may read the IC50 as the midpoint of a concentration-inhibition curve. As a reminder, the Ki is the dissociation constant of the complex between target and ligand, obtained from inhibition or displacement. One may read the DC50 as the concentration giving 50% degradation. Usually inhibition stands for the relative decrease from the control value, in per cent. The T/C is the result in the treated group divided by that in the control group, in per cent.

(Values after ChEMBL document CHEMBL5137058, “Therapeutic Strategies to Target the Androgen Receptor” (J Med Chem, 2022).)
